# Assay results: patent US20240165129A1, “METHODS OF TREATING PAIN AND DEPRESSION” (priority 2022, published 2024)
# Where two headings read alike, the source gives them in different places.
# Experiments:
# [1] = molecular target: T1, homomeric ASIC1β (Rattus norvegicus, UniProt P55926); assay: Patch-clamp recording of ASIC1β currents in CHO cells with transient expression; details: 10 μM, pH drop 7.4 to 6.0, n=4-5
# T1 sequence (P55926 1-559 isoform P55926-3): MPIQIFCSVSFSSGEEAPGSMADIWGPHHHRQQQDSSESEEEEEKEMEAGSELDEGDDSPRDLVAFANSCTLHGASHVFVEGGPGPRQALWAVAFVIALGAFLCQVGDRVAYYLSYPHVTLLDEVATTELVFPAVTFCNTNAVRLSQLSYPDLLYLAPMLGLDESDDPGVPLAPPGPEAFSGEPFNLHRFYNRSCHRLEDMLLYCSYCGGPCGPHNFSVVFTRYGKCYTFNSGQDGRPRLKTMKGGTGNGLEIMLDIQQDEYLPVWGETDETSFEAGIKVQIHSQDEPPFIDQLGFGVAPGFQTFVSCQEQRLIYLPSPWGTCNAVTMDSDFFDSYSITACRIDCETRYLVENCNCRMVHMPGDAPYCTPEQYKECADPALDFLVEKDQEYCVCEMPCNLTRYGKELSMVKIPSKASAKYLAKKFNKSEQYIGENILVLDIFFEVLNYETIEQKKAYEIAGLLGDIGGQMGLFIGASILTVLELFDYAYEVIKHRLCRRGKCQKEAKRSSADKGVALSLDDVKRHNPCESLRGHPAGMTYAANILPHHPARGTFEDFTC
# Protocol: (§1) Chinese hamster ovary (CHO) cells were cultured in F12-K medium (Invitrogen) plus 10% fetal bovine serum, 50 units/nal penicillin, and 50 μg/m1 streptomycin. At ˜50% confluence, CHO cells were co-transfected with cDNAs for rat ASIC1β, ASIC2a, or ASIC3, and that for GFP. GFP-positive cells were used for electrophysiological recordings 24-72 h after transient transfection.
# (§2) ASIC currents were recorded using patch-clamp techniques. Pipette solution contained (mM): 140 CsF, 1 CaCl2, 2 MgCl2, 11 EGTA, 2 tetraethylammonium chloride, 10 HEPES and 4 MgATP, pH 7.3 adjusted with CsOH, 290-300 mOsm. Extracellular Fluid (ECF) contained (mM): 140 NaCl, 5.4 KCl, 2 CaCl2, 1 MgCl2, 10 glucose, and 10 HEPES (320-330 mOsm). A multi-barrel perfusion system (SF-77 Warner Instruments, Hamden, CT) was used to obtain a rapid exchange of ECFs. Currents were recorded with Axopatch 200B amplifier, filtered at 2 kHz, and digitized at 5 kHz using Digidata 1332A. ASIC currents were induced by rapid perfusion of the cells with acidic ECF for 4 seconds. Unless otherwise stated, cells were clamped at a holding potential of −60 mV. […] Data were excluded for statistical analysis when access resistance was >10 MΩ or leak current was >100 pA.
# (§3) Therefore, the study used pH 6.0 and 4.5 to activate ASIC1β and ASIC2a currents, respectively. […]
# [2] = molecular target: T2, homomeric ASIC3 (Rattus norvegicus, UniProt O35240); assay: Patch-clamp recording of ASIC3 currents in CHO cells with transient expression
# T2 sequence (O35240 1-533): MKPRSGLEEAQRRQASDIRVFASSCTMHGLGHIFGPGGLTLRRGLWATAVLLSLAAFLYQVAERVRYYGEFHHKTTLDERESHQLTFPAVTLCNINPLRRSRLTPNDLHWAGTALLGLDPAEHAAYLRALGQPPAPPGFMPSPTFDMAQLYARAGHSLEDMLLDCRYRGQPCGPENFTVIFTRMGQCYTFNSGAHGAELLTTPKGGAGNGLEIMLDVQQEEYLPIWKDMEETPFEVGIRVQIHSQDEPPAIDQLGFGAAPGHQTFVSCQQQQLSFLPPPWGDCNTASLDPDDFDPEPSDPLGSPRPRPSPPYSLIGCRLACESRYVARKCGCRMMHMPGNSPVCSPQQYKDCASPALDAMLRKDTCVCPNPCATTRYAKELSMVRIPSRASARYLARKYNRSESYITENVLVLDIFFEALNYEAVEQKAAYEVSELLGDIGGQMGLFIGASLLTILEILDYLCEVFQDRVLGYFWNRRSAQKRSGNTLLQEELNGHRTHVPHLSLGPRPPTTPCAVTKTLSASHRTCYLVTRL
# Protocol: as §1, §2, §3
# [3] = system: primary cultured mouse cortical neurons; assay: Acidosis-induced neuronal injury, FDA/PI staining; details: 1 and 10 μM, pH 6.0 for 1.5 h, 24 h
# [4] = molecular target: T3, homomeric ASIC2a (Rattus norvegicus, UniProt Q62962); assay: Patch-clamp recording of ASIC2a currents in CHO cells with transient expression; details: 10 μM, pH drop 7.4 to 4.5, n=4-5
# T3 sequence (Q62962 1-512): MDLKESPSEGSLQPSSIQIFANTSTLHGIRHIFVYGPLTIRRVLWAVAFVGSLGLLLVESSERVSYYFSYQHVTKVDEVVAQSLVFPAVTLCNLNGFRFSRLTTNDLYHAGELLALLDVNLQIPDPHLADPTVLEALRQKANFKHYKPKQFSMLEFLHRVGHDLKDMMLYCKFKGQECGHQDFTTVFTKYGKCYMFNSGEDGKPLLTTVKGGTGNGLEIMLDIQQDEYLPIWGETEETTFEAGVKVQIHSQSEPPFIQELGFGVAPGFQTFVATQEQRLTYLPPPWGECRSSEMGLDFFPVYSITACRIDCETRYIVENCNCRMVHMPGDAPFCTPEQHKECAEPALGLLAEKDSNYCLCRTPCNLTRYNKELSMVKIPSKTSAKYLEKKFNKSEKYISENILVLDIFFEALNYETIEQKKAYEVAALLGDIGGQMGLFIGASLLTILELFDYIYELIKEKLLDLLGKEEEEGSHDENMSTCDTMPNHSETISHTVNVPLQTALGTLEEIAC
# Protocol: as §1, §2, §3
# [5] = system: C57BL/6J mice (inflammatory pain); assay: Carrageenan-evoked inflammatory pain, von Frey paw withdrawal; format: in vivo, mouse; details: 12 mg/kg IV, 2 h after 2% carrageenan intraplantar
# Protocol: Triol inhibits the above ASICs, so Triol has an analgesic effect. […] Experiments are performed on 12-week-old (20-25 g) C57BL/6J mice following the guidelines of the International Association for the Study of Pain. Inflammatory pain is evoked by intraplantar injection in the left hindpaw of 2% carrageenan (20 μl). After 2 h, Triol (12 mg/kg) or vehicle (20% HP-β-CD) is injected IV. The mechanical withdrawal threshold on the plantar surface of the hindpaw is measured with a set of von Frey hairs in the range of 0.4-26 gm (0.4, 1.2, 2, 4, 6, 8, 10, 15, 26 gm).
# [6] = molecular target: T4, heteromeric ASIC1a/2a channels (UniProt P78348+Q62962); details: Triol 10 μM, PcTx-1 insensitive cells, pH 6.0, n=4
# T4 sequence (P78348 1-528): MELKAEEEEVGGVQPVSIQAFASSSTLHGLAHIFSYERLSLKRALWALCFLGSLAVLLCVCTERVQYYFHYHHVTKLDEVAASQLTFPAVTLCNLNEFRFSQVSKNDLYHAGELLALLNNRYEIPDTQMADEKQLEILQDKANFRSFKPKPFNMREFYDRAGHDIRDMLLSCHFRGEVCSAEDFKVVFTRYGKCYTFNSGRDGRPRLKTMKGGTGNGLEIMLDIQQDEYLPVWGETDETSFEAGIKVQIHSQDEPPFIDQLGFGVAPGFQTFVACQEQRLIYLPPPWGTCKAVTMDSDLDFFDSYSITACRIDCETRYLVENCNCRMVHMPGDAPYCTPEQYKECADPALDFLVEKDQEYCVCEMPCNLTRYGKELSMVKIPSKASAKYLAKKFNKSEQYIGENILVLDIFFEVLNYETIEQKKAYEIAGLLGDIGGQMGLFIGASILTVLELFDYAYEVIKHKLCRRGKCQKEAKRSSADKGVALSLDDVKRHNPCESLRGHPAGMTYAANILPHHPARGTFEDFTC
# T4 sequence (Q62962 1-512): T3 sequence (Q62962 1-512)
# Protocol: as §2
# Only the GFP-positive cells were recorded. The GFP-positive CHO-1a cells may express a mix of homomeric ASIC1a, ASIC2a, or heteromeric ASIC1a/2a channels. Since homomeric ASIC2a channels are not activated at pH 6.0 37, the ASIC currents activated at pH 6.0 might be due to the activation of ASIC1a or ASIC1a/2a channels.
smiles,measurement,setting,value
"CC(C)CCC[C@@H](C)[C@H]1CC[C@H]2[C@@H]3C[C@@H](O)[C@@]4(O)C[C@@H](O)CC[C@]4(C)[C@H]3CC[C@]12C [Triol, cholestane-3β, 5α, 6β-triol]",effect on ASIC1β currents,[1],no significant effect
same,inhibition at 10 µM,"[2]; pH 5.5, read-out: inhibition of ASIC3 peak current component",~23%
same,inhibition at 10 µM,"[2]; pH 5.5, read-out: inhibition of ASIC3 sustained current component",~54%
same,death rate of cortical neurons (PI staining),[3],decrease death rate
same,survival rate of cortical neurons (FDA staining),[3],increase survival rate
same,effect on ASIC2a currents,[4],no significant effect
same,latency for the paw withdrawal reflex,[5],increases the latency for the paw withdrawal reflex
same,effect on PcTx-1 insensitive ASIC currents,[6],inhibited these currents
